# Patent publication US20240228438A1, “SOLID FORMS OF SALTS OF 4-[5-[(3S)-3-AMINOPYRROLIDINE-1-CARBONYL]-2-[2-FLUORO-4-(2- HYDROXY-2-ETHYLPROPYL)PHENYL]PHENYL]-2-FLUORO-BENZONITRILE” (Astex Pharmaceuticals, Inc., priority 2021, published 2024)
# Where a name gives a salt, the structure may show the parent alone.
# Experiments:
# [1] = Stability testing: water absorption of salt forms at 40° C. and 75% RH for five days (KF); type: physicochemical; conditions: for Initial KF: water content before exposure; for KF water content after 5 days at 40° C./75% RH: open vial covered with Kim wipe
# Procedure: The stability of different salt forms was tested. The salts were placed in 20-mL scintillation vials and covered with Kim wipe, and the resulting vials were exposed to 40° C. and 75% RH (relative humidity) for five days. The samples were analyzed for water absorption.
# [2] = Aqueous solubility of the salt form (overall assessment); type: physicochemical; conditions: in words
smiles,measurement,setting,value
"CC(C)(O)Cc1ccc(-c2ccc(C(=O)N3CC[C@H](N)C3)cc2-c2ccc(C#N)c(F)c2)c(F)c1 [esylate Form IVA, 4-[5-[(3S)-3-aminopyrrolidine-1-carbonyl]-2-[2-fluoro-4-(2-hydroxy-2-methylpropyl)phenyl]phenyl]-2-fluoro-benzonitrile esylate]",Initial KF,[1],0.76%
"CC(C)(O)Cc1ccc(-c2ccc(C(=O)N3CC[C@H](N)C3)cc2-c2ccc(C#N)c(F)c2)c(F)c1 [hemi-fumarate Form I, 4-[5-[(3S)-3-aminopyrrolidine-1-carbonyl]-2-[2-fluoro-4-(2-hydroxy-2-methylpropyl)phenyl]phenyl]-2-fluoro-benzonitrile hemi fumarate]",KF water content after 5 days at 40° C./75% RH,[1]; five days,1.57%
same,hygroscopicity,"[1]; overall assessment, in words",slightly hygroscopic
same,residual water,"[1]; overall assessment, in words",low residual water
same,Initial KF,[1],0.69%
"CC(C)(O)Cc1ccc(-c2ccc(C(=O)N3CC[C@H](N)C3)cc2-c2ccc(C#N)c(F)c2)c(F)c1 [maleate Form V, 4-[5-[(3S)-3-aminopyrrolidine-1-carbonyl]-2-[2-fluoro-4-(2-hydroxy-2-methylpropyl)phenyl]phenyl]-2-fluoro-benzonitrile maleate]",Initial KF,[1]; maleate,1.08%
"CC(C)(O)Cc1ccc(-c2ccc(C(=O)N3CC[C@H](N)C3)cc2-c2ccc(C#N)c(F)c2)c(F)c1 [mesylate Form IIIA, 4-[5-[(3S)-3-aminopyrrolidine-1-carbonyl]-2-[2-fluoro-4-(2-hydroxy-2-methylpropyl)phenyl]phenyl]-2-fluoro-benzonitrile mesylate]",Initial KF,[1]; mesylate,2.55%
CC(C)(O)Cc1ccc(-c2ccc(C(=O)N3CC[C@H](N)C3)cc2-c2ccc(C#N)c(F)c2)c(F)c1 [mono-fumarate Form VI],moisture take-up under the tested conditions,"[1]; 40° C./75% RH, five days, result in words",did not take-up moisture
same,KF water content after 5 days at 40° C./75% RH,[1]; five days,0.63%
same,Initial KF,[1],0.61%
"CC(C)(O)Cc1ccc(-c2ccc(C(=O)N3CC[C@H](N)C3)cc2-c2ccc(C#N)c(F)c2)c(F)c1 [mono-oxalate (from EtOH) Form II, 4-[5-[(3S)-3-aminopyrrolidine-1-carbonyl]-2-[2-fluoro-4-(2-hydroxy-2-methylpropyl)phenyl]phenyl]-2-fluoro-benzonitrile mono-oxalate]",KF water content after 5 days at 40° C./75% RH,"[1]; five days, mono-oxalate",4.46%
same,hygroscopicity,"[1]; overall assessment, in words",slightly hygroscopic
same,Initial KF,[1]; mono-oxalate,1.06%
same,aqueous solubility,[2],good aqueous solubility
CC(C)(O)Cc1ccc(-c2ccc(C(=O)N3CC[C@H](N)C3)cc2-c2ccc(C#N)c(F)c2)c(F)c1 [mono-oxalate salt (from IPA)],KF water content after 5 days at 40° C./75% RH,[1]; five days,4.99%
same,Initial KF,[1],2.66%
